Experimental data from USRE50049E1, “Compositions and methods for treating psoriasis” (SYMBIONYX PHARMACEUTICALS INC, priority 2015, dated 2024).
“Also recorded” adds a separate entry of the source. Counter-ions that a name gives are not always drawn. Like-named read-outs stand apart in the source and are kept apart here.

Legend:
[1] = system: TNF α-treated human dermal fibroblasts (HDF); experiment: PCR gene expression in TNF α-treated human dermal fibroblasts; assay type: cell-based; conditions: 24 hours, TNF-alpha 10 ng/ml
[2] = cited from earlier work
[3] = system: S. typhimurium TA1535; conditions: % of mutant colonies spontaneously occurring in water control
[4] = system: S. typhimurium TA1537; conditions: % of mutant colonies spontaneously occurring in water control
[5] = system: stratum granulosum (StGrm) coverage of mouse tail epidermis; experiment: Murine tail model of psoriasis; assay type: in vivo; conditions: 2 weeks of application
Text: The mouse tail test is a well-established animal model used for the development of FDA-approved anti-psoriasis drugs. Table 6 summarize the findings following 2 weeks of test material application on the tails, with the readout of improvement in stratum granulosum (StGrm) coverage +/− side effects.
The arrow in each photomicrograph points to the StGrm (stratum granulosum), which, as noted, is minimal in the control.

[6] = system: S. typhimurium (TA1535, TA1537); experiment: AMES genotoxicity testing, overall conclusion (TA1535, TA1537); conditions: including at the highest concentration required for testing (5 mg/ml)
[7] = system: psoriasiform keratinocytes (epidermal keratinocyte progenitors incubated with IL-17A/IL-22/TNFα); experiment: DNA microarray gene expression in psoriasiform keratinocyte cultures; assay type: cell-based, human; conditions: IDMF added after 24 h cytokine treatment, further 24 h
Procedure: Psoriasiform keratinocyte cultures were established by incubating epidermal keratinocyte progenitors from stratum basae (Zen-Bio, RTP, NC) with IL-17A/IL-22/TNFα ([…]) for 24 h. These cytokines have been reported to be key triggers in psoriasis (Y Tokura, T Mori, R Hino, Psoriasis and other Th17-mediated skin diseases. J UOEH, 32(4):317-328, 2010; A B Van Belle, M de Heusch, M M Lemaire, E Hendrickx, G Wamier, K Dunussi-Joannopoulos, L A Fouser, J C Renauld, L Dumoutier, IL-22 is required for imiquimod-induced psoriasiform skin inflammation in mice, J Immunol, 188(1):462-469, 2012; A Hänsel, C Günther, J Ingwersen, J Starke, M Schmitz, M Bachmann, M Meurer, E P Rieber, K Schäkel, Human slan (6-sulfo LacNAc) dendritic cells are inflammatory dermal dendritic cells in psoriasis and drive strong TH17/TH1 T-cell responses, J Allergy Clin Immunol, 127(3):787-794, 2011; Kim J, Krueger J G. The Immunopathogenesis of Psoriasis, Dermatol Clin, 33:13-23, 2015). […]
After 24 h of cytokine treatment, the IDMF test materials were added to cells and further incubation with IL-17A/IL-22/TNFα was pursued for another 24 h. At the end of the experiment total RNA was extracted from keratinocytes and quantified using DNA microarrays. […]

[8] = system: 3T3; experiment: 3T3 Neutral Red Uptake Phototoxicity Assay; assay type: cell-based; conditions: even at the maximum concentration required for testing (100 μg/ml)
Text: The 3T3 Neutral Red Uptake Phototoxicity Assay was based on the OECD Guideline for Testing of Chemicals: […], with chlorpromazine and tazarotene as positive controls.

[9] = system: skin of healthy adult volunteers; experiment: Human repeat insult patch test (HRIPT); conditions: IDMF 2% and 5% in butylene glycol/glycerin base
[10] = primary metabolite after oral administration of dimethyl fumarate; cited from earlier work
[11] = Lammintausta et al., Contact Dermatitis 2010; cited from earlier work
[12] = mouse tail, IDMF 2%, Tazorac 0.1% tazarotene

COC(=O)/C=C/C(=O)OC [DMF, Dimethyl fumarate, reference compound]
NFKB expression ([1]; DMF 5 μg/ml): decreased
protein binding [2]: does not display protein binding

COC(=O)/C=C/C(=O)OC1COC2C(OC(=O)/C=C/C(=O)OC)COC12 (centres unmarked) [IDMF, isosorbide di-(methylfumarate)]
COX-2 expression ([1]; IDMF 1 μg/ml): −2.4 fold
IL8 expression ([1]; IDMF 1 μg/ml): did not increase
NFKB expression ([1]; IDMF 1 μg/ml): decreased
% CTR (TA1535) ([3]; 8 μg/ml): 96 % CTR
% CTR (TA1535) ([3]; 40 μg/ml): 89 % CTR
% CTR (TA1535) ([3]; 200 μg/ml): 68 % CTR
% CTR (TA1535) ([3]; 1 mg/ml): 64 % CTR
% CTR (TA1535) ([3]; 5 mg/ml): 18 % CTR
% CTR (TA1537) ([4]; 8 μg/ml): 83 % CTR
% CTR (TA1537) ([4]; 40 μg/ml): 117 % CTR
% CTR (TA1537) ([4]; 200 μg/ml): 91 % CTR
% CTR (TA1537) ([4]; 1 mg/ml): 30 % CTR
% CTR (TA1537) ([4]; 5 mg/ml): 13 % CTR
Tail observations: epidermal thickness ([5]; mouse tail, IDMF 2% in butylene glycol/glycerin, Tazorac 0.1% tazarotene, control 3-4 layers): thickness (4-5 layers),
Tail observations: granular layer (StGrm) [5, 12]: significant extension of StGrm coverage; also recorded: extended granular layer
Tail observations: inflammatory (leukocyte) infiltrate [5, 12]: no inflammation; also recorded: no inflammatory infiltrate,
Tail observations: stratum corneum (StCr) [5, 12]: normal basketwave StCr,
StGrm expansion ([5]; mouse tail, control (no treatment) = 100, IDMF 2% in butylene glycol/glycerin, Tazorac 0.1% tazarotene, p < 0.0001): 134 (p < 0.0001)
genotoxicity (AMES) [6]: not genotoxic
TNFα/IFNγ/IL-17 responses (DNA microarray) [7]: significant inhibition
antioxidant pathways, especially those related to glutathione (DNA microarray) [7]: upregulated
phototoxicity [8]: not phototoxic
conclusion of the HRIPT study [9]: non-sensitizing and non-irritating
participants with score zero ([9]; 100 healthy adult volunteers): 100%
skin sensitization/irritation score (scale 0-5) ([9]; 100 healthy adult volunteers): 0
flushing ([9]; topical patch): no flushing was observed

COC(=O)/C=C/C(=O)O [MMF, monomethyl fumarate]
half-life [10]: 36 h
protein binding (bound) [2]: approximately 50%
skin sensitization [11]: known skin sensitizers

CCOC(=O)c1ccc(C#Cc2ccc3c(c2)C(C)(C)CCS3)nc1 [tazarotene, reference compound]
adverse effects in mouse tail test ([5]; positive control): substantial hyperkeratosis, spongiosis and wide-spread inflammation
